# Laboratory results as given in ChEMBL document CHEMBL5584210, “Design, synthesis and antitubercular assessment of 1, 2, 3-triazole incorporated thiazolylcarboxylate derivatives” (Bioorg Med Chem Lett, 2024).
# Tests used:
# [1] = system: Mycobacterium tuberculosis; assay: Antimycobacterial activity against Mycobacterium tuberculosis H37Rv by alamar blue assay; type: functional
# [2] = Cytotoxicity against mouse RAW264.7 cells assessed as inhibition of cell growth at 25 ug/ml incubated for 48 hrs by MTT assay relative to control; type: toxicity, cell-based; settings: at 25 µg/mL
Compound,MIC [1] [µg/mL],"inhibition at 48 h, 25 ug/ml [2] [%]"
CCc1cc(-c2nc(C)c(C(=O)OCc3cn(-c4cccc(C)c4)nn3)s2)ccn1,6.25,30.1
CCc1cc(-c2nc(C)c(C(=O)OCc3cn(-c4ccc(C)c([N+](=O)[O-])c4)nn3)s2)ccn1,12.5,–
CCc1cc(-c2nc(C)c(C(=O)OCc3cn(-c4ccccc4Cl)nn3)s2)ccn1,25,–
CCc1cc(-c2nc(C)c(C(=O)OCc3cn(-c4ccc(Br)cc4)nn3)s2)ccn1,> 25,–
CCc1cc(-c2nc(C)c(C(=O)OCc3cn(-c4ccccc4OC)nn3)s2)ccn1,> 25,–
CCCc1cc(-c2nc(C)c(C(=O)OCc3cn(-c4ccc(CC)cc4)nn3)s2)ccn1,1.56,27.2
CCc1cc(-c2nc(C)c(C(=O)OCc3cn(-c4cccc([N+](=O)[O-])c4)nn3)s2)ccn1,12.5,–
CCCc1cc(-c2nc(C)c(C(=O)OCc3cn(-c4ccc(C)cc4)nn3)s2)ccn1,> 25,–
CCc1ccc(-n2cc(COC(=O)c3sc(-c4ccnc(CC)c4)nc3C)nn2)cc1,3.12,29.2
CCCc1cc(-c2nc(C)c(C(=O)OCc3cn(-c4cccc(Cl)c4)nn3)s2)ccn1,12.5,–
CCc1cc(-c2nc(C)c(C(=O)OCc3cn(-c4c(C)cc(C)cc4C)nn3)s2)ccn1,25,–
CCCc1cc(-c2nc(C)c(C(=O)OCc3cn(-c4cccc(OC)c4)nn3)s2)ccn1,6.25,25.7
CCc1cc(-c2nc(C)c(C(=O)OCc3cn(-c4ccc(OC)cc4)nn3)s2)ccn1,12.5,–
CCc1cc(-c2nc(C)c(C(=O)OCc3cn(-c4ccc(C)cc4)nn3)s2)ccn1,25,–
CCCc1cc(-c2nc(C)c(C(=O)OCc3cn(-c4cccc([N+](=O)[O-])c4)nn3)s2)ccn1,> 25,–
CCCc1cc(-c2nc(C)c(C(=O)OCc3cn(-c4ccccc4)nn3)s2)ccn1,12.5,–
CCCc1cc(-c2nc(C)c(C(=O)OCc3cn(-c4ccc(Br)cc4)nn3)s2)ccn1,25,–
CCc1cc(-c2nc(C)c(C(=O)OCc3cn(-c4cccc(OC)c4)nn3)s2)ccn1,6.25,26
CCc1cc(-c2nc(C)c(C(=O)OCc3cn(-c4cccc(Cl)c4)nn3)s2)ccn1,25,–
CCc1cc(-c2nc(C)c(C(=O)OCc3cn(-c4ccc(C)cc4C)nn3)s2)ccn1,6.25,21.9
CCc1cc(-c2nc(C)c(C(=O)OCc3cn(-c4ccccc4)nn3)s2)ccn1,25,–
CCCc1cc(-c2nc(C)c(C(=O)OCc3cn(-c4ccc(Cl)cc4)nn3)s2)ccn1,> 25,–
CCc1cc(-c2nc(C)c(C(=O)OCc3cn(-c4ccccc4C)nn3)s2)ccn1,12.5,–
CCCc1cc(-c2nc(C)c(C(=O)OCc3cn(-c4ccc(OC)cc4)nn3)s2)ccn1,> 25,–
CCc1cc(-c2nc(C)c(C(=O)OCc3cn(-c4ccc(Cl)cc4)nn3)s2)ccn1,25,–
CCc1cc(-c2nc(C)c(C(=O)OCc3cn(-c4ccccc4F)nn3)s2)ccn1,12.5,–
CCCc1cc(-c2nc(C)c(C(=O)OCc3cn(-c4ccccc4F)nn3)s2)ccn1,25,–
O=C(O)c1cn(C2CC2)c2cc(N3CCNCC3)c(F)cc2c1=O [CIPROFLOXACIN],1.56,–
CC[C@@H](CO)NCCN[C@@H](CC)CO [ETHAMBUTOL],3.12,–
